In patent US10499640B2, “Herbicidal compounds” (SYNGENTA PARTICIPATIONS AG, priority 2014, dated 2019):

Key:
Format in all cases: in vivo
Setaria faberi (SETFA) [1] = assay: Pre-emergence herbicidal activity, glasshouse pot test; set-up: key: 5=total damage to plant; 0=no damage to plant; settings: Rate 1000 g/Ha; sprayed one day after sowing; evaluated after 13 days; scale 0-5
Experimental: (§1) Seeds of a variety of test species were sown in standard soil in pots. After cultivation for one day (pre-emergence) under controlled conditions in a glasshouse (at 24/16° C., day/night; 14 hours light; 65% humidity), the plants were sprayed with an aqueous spray solution derived from the formulation of the technical active ingredient in acetone/water (50:50) solution containing 0.5% Tween 20 (polyoxyethelyene sorbitan monolaurate, CAS RN 9005-64-5). The test plants were then grown in a glasshouse under controlled conditions (at 24/16° C., day/night; 14 hours light; 65% humidity) and watered twice daily. After 13 days, the test was evaluated (5=total damage to plant; 0=no damage to plant).

[2] = system: Alopecurus myosuroides (ALOMY); assay: as above; set-up: key: 5=total damage to plant; 0=no damage to plant; settings: Rate 1000 g/Ha; sprayed one day after sowing; evaluated after 13 days; scale 0-5
Experimental: as §1

[3] = system: Echinochloa crus-galli (ECHCG); assay: as above; set-up: key: 5=total damage to plant; 0=no damage to plant; settings: Rate 1000 g/Ha; sprayed one day after sowing; evaluated after 13 days; scale 0-5
Experimental: as §1

[4] = system: Amaranthus retroflexus (AMARE); assay: as above; set-up: key: 5=total damage to plant; 0=no damage to plant; settings: Rate 1000 g/Ha; sprayed one day after sowing; evaluated after 13 days; scale 0-5
Experimental: as §1

[5] = system: Abutilon theophrasti (ABUTH); assay: as above; set-up: key: 5=total damage to plant; 0=no damage to plant; settings: Rate 1000 g/Ha; sprayed one day after sowing; evaluated after 13 days; scale 0-5
Experimental: as §1

Zea mays (ZEAMX) [6] = assay: as above; settings: Rate 1000 g/Ha; sprayed one day after sowing; evaluated after 13 days; scale 0-5
Experimental: as §1

Setaria faberi (SETFA) [7] = assay: Post-emergence herbicidal activity, glasshouse pot test; set-up: key: 5=total damage to plant; 0=no damage to plant; settings: Rate 1000 g/Ha; sprayed after 8 days cultivation; evaluated after 13 days; scale 0-5
Experimental: (§2) Seeds of a variety of test species were sown in standard soil in pots. After 8 days cultivation (post-emergence) under controlled conditions in a glasshouse (at 24/16° C., day/night; 14 hours light; 65% humidity), the plants were sprayed with an aqueous spray solution derived from the formulation of the technical active ingredient in acetone/water (50:50) solution containing 0.5% Tween 20 (polyoxyethelyene sorbitan monolaurate, CAS RN 9005-64-5). The test plants were then grown in a glasshouse under controlled conditions (at 24/16° C., day/night; 14 hours light; 65% humidity) and watered twice daily. After 13 days, the test was evaluated (5=total damage to plant; 0=no damage to plant).

[8] = system: Alopecurus myosuroides (ALOMY); assay: as above; set-up: key: 5=total damage to plant; 0=no damage to plant; settings: Rate 1000 g/Ha; sprayed after 8 days cultivation; evaluated after 13 days; scale 0-5
Experimental: as §2

[9] = system: Echinochloa crus-galli (ECHCG); assay: as above; set-up: key: 5=total damage to plant; 0=no damage to plant; settings: Rate 1000 g/Ha; sprayed after 8 days cultivation; evaluated after 13 days; scale 0-5
Experimental: as §2

Zea mays (ZEAMX) [10] = assay: as above; set-up: key: 5=total damage to plant; 0=no damage to plant; settings: Rate 1000 g/Ha; sprayed after 8 days cultivation; evaluated after 13 days; scale 0-5
Experimental: as §2

[11] = system: Amaranthus retroflexus (AMARE); assay: as above; set-up: key: 5=total damage to plant; 0=no damage to plant; settings: Rate 1000 g/Ha; sprayed after 8 days cultivation; evaluated after 13 days; scale 0-5
Experimental: as §2

[12] = system: Abutilon theophrasti (ABUTH); assay: as above; set-up: key: 5=total damage to plant; 0=no damage to plant; settings: Rate 1000 g/Ha; sprayed after 8 days cultivation; evaluated after 13 days; scale 0-5
Experimental: as §2

| Structure (SMILES) | SETFA damage score, application pre-emergence (Setaria faberi (SETFA) [1]) | ALOMY damage score, application pre-emergence [2] | ECHCG damage score, application pre-emergence [3] | AMARE damage score, application pre-emergence [4] | ABUTH damage score, application pre-emergence [5] | ZEAMX damage score, application pre-emergence (Zea mays (ZEAMX) [6]) | SETFA damage score, application post-emergence (Setaria faberi (SETFA) [7]) | ALOMY damage score, application post-emergence [8] | ECHCG damage score, application post-emergence [9] | ZEAMX damage score, application post-emergence (Zea mays (ZEAMX) [10]) | AMARE damage score, application post-emergence [11] | ABUTH damage score, application post-emergence [12] |
| --- | --- | --- | --- | --- | --- | --- | --- | --- | --- | --- | --- | --- |
| CC(C)(C#N)c1cc(N2C(=O)NCC2O)no1 (stereo not drawn) [Compound A8] | 1 | 0 | 1 | 5 | 5 | 1 | 3 | 2 | 3 | 1 | 4 | 5 |
| CC(C)(C)c1cc(N2C(=O)N3CCCCC3C2O)no1 (stereo not drawn) [Compound A26] | 4 | 4 | 4 | 5 | 5 | 3 | 5 | 5 | 5 | 5 | 5 | 5 |
